Assay results as given in ChEMBL document CHEMBL5634115, “Exploring novel anticancer pyrazole benzenesulfonamides featuring tail approach strategy as carbonic anhydrase inhibitors” (Eur J Med Chem, 2023).

Key:
Assay in all cases: cells
K562 = type: functional; details: Homo sapiens, time 48 hrs
Description: Growth inhibition of human K562 cells measured after 48 hrs by sulforhodamine B assay

SK-OV-3 [1] = details: Homo sapiens, SK-OV-3, 48 h, read-out: LC50
Description: Cytotoxicity activity against human SK-OV-3 cells assessed as reduction in cell growth measured after 48 hrs by sulforhodamine B assay

SK-MEL-5 [2] = type: functional; details: Homo sapiens, time 48 hrs
Description: Cytostatic activity against human SK-MEL-5 cells assessed as total growth inhibition measured after 48 hrs by sulforhodamine B assay

SF-295 = details: Homo sapiens, SF-295, 48 h, read-out: LC50
Description: Cytotoxicity activity against human SF-295 cells assessed as reduction in cell growth measured after 48 hrs by sulforhodamine B assay

RPMI-8226 = type: functional; details: Homo sapiens, time 48 hrs
Description: Cytostatic activity against human RPMI-8226 cells assessed as total growth inhibition measured after 48 hrs by sulforhodamine B assay

NCI-H23 = details: Homo sapiens, NCI-H23, 48 h, read-out: LC50
Description: Cytotoxicity activity against human NCI-H23 cells assessed as reduction in cell growth measured after 48 hrs by sulforhodamine B assay

Malme-3M = type: functional; details: Homo sapiens, time 48 hrs
Description: Cytostatic activity against human Malme-3M cells assessed as total growth inhibition measured after 48 hrs by sulforhodamine B assay

IGROV-1 [3] = type: functional; details: Homo sapiens, time 48 hrs
Description: Cytostatic activity against human IGROV-1 cells assessed as total growth inhibition measured after 48 hrs by sulforhodamine B assay

UACC-257 [4] = details: Homo sapiens, UACC-257, 48 h, read-out: LC50
Description: Cytotoxicity activity against human UACC-257 cells assessed as reduction in cell growth measured after 48 hrs by sulforhodamine B assay

OVCAR-4 [5] = type: functional; details: Homo sapiens, time 48 hrs
Description: Cytostatic activity against human OVCAR-4 cells assessed as total growth inhibition measured after 48 hrs by sulforhodamine B assay

SK-OV-3 [6] = type: functional; details: Homo sapiens, time 48 hrs
Description: Growth inhibition of human SK-OV-3 cells measured after 48 hrs by sulforhodamine B assay

MDA-MB-435 = details: Homo sapiens, MDA-MB-435, 48 h, read-out: LC50
Description: Cytotoxicity activity against human MDA-MB-435 cells assessed as reduction in cell growth measured after 48 hrs by sulforhodamine B assay

MDA-MB-231 = details: Homo sapiens, MDA-MB-231, 48 h, read-out: LC50
Description: Cytotoxicity activity against human MDA-MB-231 cells assessed as reduction in cell growth measured after 48 hrs by sulforhodamine B assay

CCRF-CEM [7] = details: Homo sapiens, 48 h, read-out: LC50
Description: Cytotoxicity activity against human CCRF-CEM cells assessed as reduction in cell growth measured after 48 hrs by sulforhodamine B assay

SK-MEL-2 [8] = type: functional; details: Homo sapiens, time 48 hrs
Description: Cytostatic activity against human SK-MEL-2 cells assessed as total growth inhibition measured after 48 hrs by sulforhodamine B assay

OVCAR-4 [9] = type: functional; details: Homo sapiens, time 48 hrs; remark: listed apart in the source
Description: Growth inhibition of human OVCAR-4 cells measured after 48 hrs by sulforhodamine B assay

Hs-578T [10] = type: functional; details: Homo sapiens, time 48 hrs
Description: Growth inhibition of human Hs-578T cells measured after 48 hrs by sulforhodamine B assay

M14 = details: Homo sapiens, M14, 48 h, read-out: LC50
Description: Cytotoxicity activity against human M14 cells assessed as reduction in cell growth measured after 48 hrs by sulforhodamine B assay

UACC-62 [11] = type: functional; details: Homo sapiens, time 48 hrs
Description: Cytostatic activity against human UACC-62 cells assessed as total growth inhibition measured after 48 hrs by sulforhodamine B assay

OVCAR-3 [12] = type: functional; details: Homo sapiens, time 48 hrs
Description: Cytostatic activity against human OVCAR-3 cells assessed as total growth inhibition measured after 48 hrs by sulforhodamine B assay

A498 = details: Homo sapiens, A498, 48 h, read-out: LC50
Description: Cytotoxicity activity against human A498 cells assessed as reduction in cell growth measured after 48 hrs by sulforhodamine B assay

Hs-578T [13] = details: Homo sapiens, 48 h, read-out: LC50
Description: Cytotoxicity activity against human Hs-578T cells assessed as reduction in cell growth measured after 48 hrs by sulforhodamine B assay

PC-3 = type: functional; details: Homo sapiens, time 48 hrs
Description: Cytostatic activity against human PC-3 cells assessed as total growth inhibition measured after 48 hrs by sulforhodamine B assay

UACC-62 [14] = type: functional; details: Homo sapiens, time 48 hrs; remark: listed apart in the source
Description: Growth inhibition of human UACC-62 cells measured after 48 hrs by sulforhodamine B assay

NCI/ADR-RES = type: functional; details: Homo sapiens, time 48 hrs
Description: Growth inhibition of human NCI/ADR-RES cells measured after 48 hrs by sulforhodamine B assay

A549 [15] = type: functional; details: Homo sapiens, time 48 hrs
Description: Growth inhibition of human A549 cells measured after 48 hrs by sulforhodamine B assay

A549 [16] = type: functional; details: Homo sapiens, time 48 hrs; remark: listed apart in the source
Description: Cytostatic activity against human A549 cells assessed as total growth inhibition measured after 48 hrs by sulforhodamine B assay

HCC 2998 = type: functional; details: Homo sapiens, time 48 hrs
Description: Cytostatic activity against human HCC 2998 cells assessed as total growth inhibition measured after 48 hrs by sulforhodamine B assay

HL-60(TB) = details: Homo sapiens, HL-60, 48 h, read-out: LC50
Description: Cytotoxicity activity against human HL-60(TB) cells assessed as reduction in cell growth measured after 48 hrs by sulforhodamine B assay

786-0 [17] = type: functional; details: Homo sapiens, time 48 hrs
Description: Cytostatic activity against human 786-0 cells assessed as total growth inhibition measured after 48 hrs by sulforhodamine B assay

TK-10 = type: functional; details: Homo sapiens, time 48 hrs
Description: Cytostatic activity against human TK-10 cells assessed as total growth inhibition measured after 48 hrs by sulforhodamine B assay

ACHN = details: Homo sapiens, 48 h, read-out: LC50
Description: Cytotoxicity activity against human ACHN cells assessed as reduction in cell growth measured after 48 hrs by sulforhodamine B assay

KM12 [18] = type: functional; details: Homo sapiens, time 48 hrs
Description: Cytostatic activity against human KM12 cells assessed as total growth inhibition measured after 48 hrs by sulforhodamine B assay

SN12C = type: functional; details: Homo sapiens, time 48 hrs
Description: Growth inhibition of human SN12C cells measured after 48 hrs by sulforhodamine B assay

RXF 393 = type: functional; details: Homo sapiens, time 48 hrs
Description: Cytostatic activity against human RXF 393 cells assessed as total growth inhibition measured after 48 hrs by sulforhodamine B assay

KM12 [19] = type: functional; details: Homo sapiens, time 48 hrs; remark: listed apart in the source
Description: Growth inhibition of human KM12 cells measured after 48 hrs by sulforhodamine B assay

MOLT-4 [20] = type: functional; details: Homo sapiens, time 48 hrs
Description: Growth inhibition of human MOLT-4 cells measured after 48 hrs by sulforhodamine B assay

NCI-H460 [21] = details: Homo sapiens, NCI-H460, 48 h, read-out: LC50
Description: Cytotoxicity activity against human NCI-H460 cells assessed as reduction in cell growth measured after 48 hrs by sulforhodamine B assay

COLO 205 = type: functional; details: Homo sapiens, time 48 hrs
Description: Cytostatic activity against human COLO 205 cells assessed as total growth inhibition measured after 48 hrs by sulforhodamine B assay

LOX IMVI = type: functional; details: Homo sapiens, time 48 hrs
Description: Growth inhibition of human LOX IMVI cells measured after 48 hrs by sulforhodamine B assay

SK-MEL-5 [22] = details: Homo sapiens, SK-MEL-5, 48 h, read-out: LC50
Description: Cytotoxicity activity against human SK-MEL-5 cells assessed as reduction in cell growth measured after 48 hrs by sulforhodamine B assay

HT-29 [23] = type: functional; details: Homo sapiens, time 48 hrs
Description: Cytostatic activity against human HT-29 cells assessed as total growth inhibition measured after 48 hrs by sulforhodamine B assay

HT-29 [24] = type: functional; details: Homo sapiens, time 48 hrs; remark: listed apart in the source
Description: Growth inhibition of human HT-29 cells measured after 48 hrs by sulforhodamine B assay

OVCAR-3 [25] = details: Homo sapiens, OVCAR-3, 48 h, read-out: LC50
Description: Cytotoxicity activity against human OVCAR-3 cells assessed as reduction in cell growth measured after 48 hrs by sulforhodamine B assay

SK-MEL-5 [26] = type: functional; details: Homo sapiens, time 48 hrs; remark: listed apart in the source
Description: Growth inhibition of human SK-MEL-5 cells measured after 48 hrs by sulforhodamine B assay

SK-MEL-2 [27] = details: Homo sapiens, SK-MEL-2, 48 h, read-out: LC50
Description: Cytotoxicity activity against human SK-MEL-2 cells assessed as reduction in cell growth measured after 48 hrs by sulforhodamine B assay

OVCAR-4 [28] = details: Homo sapiens, OVCAR-4, 48 h, read-out: LC50
Description: Cytotoxicity activity against human OVCAR-4 cells assessed as reduction in cell growth measured after 48 hrs by sulforhodamine B assay

OVCAR-8 = type: functional; details: Homo sapiens, time 48 hrs
Description: Growth inhibition of human OVCAR-8 cells measured after 48 hrs by sulforhodamine B assay

UACC-257 [29] = type: functional; details: Homo sapiens, time 48 hrs
Description: Growth inhibition of human UACC-257 cells measured after 48 hrs by sulforhodamine B assay

SW-620 = type: functional; details: Homo sapiens, time 48 hrs
Description: Cytostatic activity against human SW620 cells assessed as total growth inhibition measured after 48 hrs by sulforhodamine B assay

IGROV-1 [30] = details: Homo sapiens, IGROV-1, 48 h, read-out: LC50
Description: Cytotoxicity activity against human IGROV-1 cells assessed as reduction in cell growth measured after 48 hrs by sulforhodamine B assay

CCRF-CEM [31] = type: functional; details: Homo sapiens, time 48 hrs
Description: Cytostatic activity against human CCRF-CEM cells assessed as total growth inhibition measured after 48 hrs by sulforhodamine B assay

U-251 = type: functional; details: Homo sapiens, time 48 hrs
Description: Cytostatic activity against human U-251 cells assessed as total growth inhibition measured after 48 hrs by sulforhodamine B assay

HCT-116 = type: functional; details: Homo sapiens, time 48 hrs
Description: Cytostatic activity against human HCT-116 cells assessed as total growth inhibition measured after 48 hrs by sulforhodamine B assay

786-0 [32] = type: functional; details: Homo sapiens, time 48 hrs; remark: listed apart in the source
Description: Growth inhibition of human 786-0 cells measured after 48 hrs by sulforhodamine B assay

BT-549 = type: functional; details: Homo sapiens, time 48 hrs
Description: Cytostatic activity against human BT-549 cells assessed as total growth inhibition measured after 48 hrs by sulforhodamine B assay

EKVX = type: functional; details: Homo sapiens, time 48 hrs
Description: Growth inhibition of human EKVX cells measured after 48 hrs by sulforhodamine B assay

Hs-578T [33] = type: functional; details: Homo sapiens, time 48 hrs; remark: listed apart in the source
Description: Cytostatic activity against human Hs-578T cells assessed as total growth inhibition measured after 48 hrs by sulforhodamine B assay

MOLT-4 [34] = details: Homo sapiens, MOLT-4, 48 h, read-out: LC50
Description: Cytotoxicity activity against human MOLT-4 cells assessed as reduction in cell growth measured after 48 hrs by sulforhodamine B assay

MDA-MB-468 = details: Homo sapiens, MDA-MB-468, 48 h, read-out: LC50
Description: Cytotoxicity activity against human MDA-MB-468 cells assessed as reduction in cell growth measured after 48 hrs by sulforhodamine B assay

NCI-H460 [35] = type: functional; details: Homo sapiens, time 48 hrs
Description: Growth inhibition of human NCI-H460 cells measured after 48 hrs by sulforhodamine B assay

`CCOC(=O)c1ccc(N/N=C/c2cn(-c3ccc(S(N)(=O)=O)cc3)nc2-c2ccc(C)cc2)cc1` was tested. Which GI50 (K562) did it give?
The GI50 was 2.88 µM.

What about the CC50 (SK-OV-3 [1]) of the same compound?
The CC50 was over 100 µM.

What about the TGI (SK-MEL-5 [2]) of the same compound?
The TGI was 10.2 µM.

And the CC50 (SF-295)?
Its CC50 is 74.3 µM.

And the TGI (RPMI-8226)?
Its TGI is 3.24 µM.

And the CC50 (NCI-H23)?
Its CC50 is 94.5 µM.

What about the TGI (Malme-3M) of the same compound?
Its TGI is 23.4 µM.

And the TGI (IGROV-1 [3])?
The TGI was 25.9 µM.

And the CC50 (UACC-257 [4])?
The CC50 was over 100 µM.

And the TGI (OVCAR-4 [5])?
The TGI was 71.5 µM.

What about the GI50 (SK-OV-3 [6]) of the same compound?
The GI50 was 24.4 µM.

And the CC50 (MDA-MB-435)?
The CC50 was 70.2 µM.

And the CC50 (MDA-MB-231)?
Its CC50 is 58 µM.

And the CC50 (CCRF-CEM [7])?
Its CC50 is over 100 µM.

And the TGI (SK-MEL-2 [8])?
Its TGI is 40.6 µM.

And the GI50 (OVCAR-4 [9])?
The GI50 was 7.08 µM.

What about the GI50 (Hs-578T [10]) of the same compound?
Its GI50 is 2.76 µM.

And the CC50 (M14)?
The CC50 was 7.31 µM.

And the TGI (UACC-62 [11])?
Its TGI is 21.5 µM.

And the TGI (OVCAR-3 [12])?
The TGI was 7.27 µM.

And the CC50 (A498)?
Its CC50 is over 100 µM.

What about the CC50 (Hs-578T [13]) of the same compound?
The CC50 was over 100 µM.

And the TGI (PC-3)?
Its TGI is 38.1 µM.

And the GI50 (UACC-62 [14])?
Its GI50 is 5.66 µM.

And the GI50 (NCI/ADR-RES)?
Its GI50 is 2.94 µM.

And the GI50 (A549 [15])?
Its GI50 is 4.07 µM.

What about the TGI (A549 [16]) of the same compound?
Its TGI is 4.07 µM.

What about the TGI (HCC 2998) of the same compound?
Its TGI is 4.23 µM.

And the CC50 (HL-60(TB))?
The CC50 was over 100 µM.

What about the TGI (786-0 [17]) of the same compound?
Its TGI is 5.74 µM.

And the TGI (TK-10)?
Its TGI is over 100 µM.

What about the CC50 (ACHN) of the same compound?
The CC50 was over 100 µM.

What about the TGI (KM12 [18]) of the same compound?
The TGI was 4.59 µM.

And the GI50 (SN12C)?
The GI50 was 16 µM.

And the TGI (RXF 393)?
The TGI was 4.19 µM.

What about the GI50 (KM12 [19]) of the same compound?
Its GI50 is 2.1 µM.

What about the GI50 (MOLT-4 [20]) of the same compound?
Its GI50 is 2.87 µM.

And the CC50 (NCI-H460 [21])?
The CC50 was over 100 µM.

And the TGI (COLO 205)?
The TGI was 44.3 µM.

What about the GI50 (LOX IMVI) of the same compound?
Its GI50 is 1.71 µM.

And the CC50 (SK-MEL-5 [22])?
The CC50 was 40.2 µM.

And the TGI (HT-29 [23])?
The TGI was 8.38 µM.

And the GI50 (HT-29 [24])?
The GI50 was 2.97 µM.

What about the CC50 (OVCAR-3 [25]) of the same compound?
Its CC50 is 62.6 µM.

What about the GI50 (SK-MEL-5 [26]) of the same compound?
The GI50 was 2.99 µM.

And the CC50 (SK-MEL-2 [27])?
Its CC50 is over 100 µM.

What about the CC50 (OVCAR-4 [28]) of the same compound?
The CC50 was over 100 µM.

And the GI50 (OVCAR-8)?
The GI50 was 5.68 µM.

And the GI50 (UACC-257 [29])?
Its GI50 is 13.2 µM.

And the TGI (SW-620)?
The TGI was 15.6 µM.

What about the CC50 (IGROV-1 [30]) of the same compound?
Its CC50 is over 100 µM.

And the TGI (CCRF-CEM [31])?
Its TGI is 57.4 µM.

What about the TGI (U-251) of the same compound?
The TGI was over 100 µM.

What about the TGI (HCT-116) of the same compound?
Its TGI is 10.6 µM.

What about the GI50 (786-0 [32]) of the same compound?
Its GI50 is 2.42 µM.

What about the TGI (BT-549) of the same compound?
The TGI was 40.6 µM.

And the GI50 (EKVX)?
The GI50 was 3.17 µM.

And the TGI (Hs-578T [33])?
The TGI was 27.2 µM.

And the CC50 (MOLT-4 [34])?
Its CC50 is over 100 µM.

And the CC50 (MDA-MB-468)?
Its CC50 is 99.3 µM.

And the GI50 (NCI-H460 [35])?
Its GI50 is 2.43 µM.
